US20050080020A1, “Hydroxylated indirubin derivatives” (priority 2002, published 2005)
Read-outs that look alike come from different tables or passages of the source.

How the values were obtained:
[1] = solubility in physiological saline (pH 7.4); format: physicochemical
log P (octanol/water) = format: physicochemical
[2] = system: human solid tumors implanted into nude mice; settings: cited from earlier work
[3] = system: cytochrom P450 dependent liver monooxygenases
tumor cells = test: inhibition of growth of tumor cells; format: cell-based; settings: relative to parent compounds
[4] = nude mice, comparable dosage, cf. PCT/EP00/03210

Row | Compound | solubility in physiological saline [1] | log P (octanol/water) (log P (octanol/water)) | inhibiting growth of tumor cells, compared with the parent compounds (tumor cells) | other results
1 | Cc1ccc2c(c1)/C(=C1/Nc3ccccc3C1=O)C(=O)N2 [5-methylindirubin] | 0.1 mg/l | 1.1 |  | effectiveness on human solid tumors implanted into nude mice [2, 4]: highly effective; toxicity (body weight loss) [2, 4]: without any perceptible toxicity; metabolism (oxidative, liver microsomes) ([3]; liver microsome preparations from cows, pigs, rats and human liver samples): rapidly metabolized
2 | Cc1cc2c(cc1O)NC(=O)C2=C1Nc2c(O)cccc2C1=O [6,7′-dihydroxy-5-methylindirubin] |  |  | at least as effective | 
3 | Cc1cc2c(cc1O)NC(=O)C2=C1Nc2ccccc2C1=O [6-hydroxy-5-methylindirubin] | up to 240 mg/l | 1.6 | at least as effective | increase of solubility versus parent compound 5-methylindirubin (factor) [1]: more than 2000
4 | O=C1Nc2ccccc2/C1=C1/Nc2ccccc2C1=O [indirubin] |  |  |  | toxicity (body weight loss) ([2]; mouse, in vivo): remarkably toxic; metabolism (oxidative, liver microsomes) [3]: not metabolized to a detectable extent
